Results: the METLIN SMRT retention time set (Domingo-Almenara et al. 2019)

Assay: gradient 5% acetonitrile 3 min, to 50% in 2 min, to 85% in 15 min, held 3 min, 100 µL/min
Conditions: column: Zorbax Extend-C18 2.1 x 50 mm; eluents: water / acetonitrile, 0.1% formic acid
Method in brief: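 Pure standards were analyzed in mixtures of ~100 molecules using HPLC coupled to a quadrupole time-of-flight mass spectrometer, in both positive and negative ionization mode. Separation used a Zorbax Extend-C18 column (2.1 × 50 mm, 1.8 μm) at 100 μL/min, with water and acetonitrile each containing 0.1% formic acid. Dead and dwell volumes were 40 μL and 900 μL, and data were collected over 3 months. Retention time was read from computationally picked adduct peaks, each inspected manually.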

COC(=O)C1=CN(c2ccc(F)cc2)c2cc(Br)ccc2S1(=O)=O
RP-LC retention time: 963 s

CN(C)S(=O)(=O)c1ccc2c(c1)N(CC(=O)NCCCN1CCCC1)C(=O)C1CCCCN21 (stereo not drawn)
RP-LC retention time: 614 s

O=C(Cn1ccn2nc(-c3ccccc3)c(CO)c2c1=O)Nc1cc(F)ccc1Cl
RP-LC retention time: 868 s

COc1ccc(N2CCN(C(=O)c3cn4ccccc4n3)CC2)cc1
RP-LC retention time: 603 s

Cc1cccc(N2C(=O)CN(S(C)(=O)=O)CC2(C)C(=O)NCc2ccc(F)cc2)c1C (stereo not drawn)
RP-LC retention time: 809 s

CCCCNC(=O)CC1CCN(C(=O)c2[nH]c(C)c(C(=O)OC)c2C)CC1
RP-LC retention time: 689 s

Cc1ccc(N(C)C(=O)Cn2ccc3c(=O)n(C)c(=O)n(C)c32)cc1C
RP-LC retention time: 693 s

COCCCn1c(=O)c2ccccc2n(Cc2nc(-c3ccc(C)c(C)c3)no2)c1=O
RP-LC retention time: 1120 s

COc1ccccc1-c1nnc(-c2ccc(C)c(S(=O)(=O)N(C)C)c2)o1
RP-LC retention time: 895 s

O=C(Cn1cccn1)N1CCCC(COCc2ccccc2)C1 (stereo not drawn)
RP-LC retention time: 709 s

O=C(NCc1cccc(Cl)c1)C1CCN(c2cnc(N3CCCC3)nc2)CC1
RP-LC retention time: 690 s

CCCNC(=O)c1nc2cccnc2n(C)c1=O
RP-LC retention time: 647 s

Cc1cc(NC(=O)Cn2ccn3nc(-c4ccccc4)c(CO)c3c2=O)n[nH]1
RP-LC retention time: 644 s

O=C(c1ccccn1)N1CCN(c2cc(-c3ccccc3)ncn2)CC1
RP-LC retention time: 551 s

Cc1ccc(CNC(=O)C2CCN(S(=O)(=O)c3cc(C(=O)N(C)C)cs3)CC2)o1
RP-LC retention time: 708 s

CS(=O)(=O)N1CCCc2ccc(NC(=O)Nc3ccc(Cl)c(Cl)c3)cc21
RP-LC retention time: 971 s

O=C(Nc1nc(-c2ccccc2)cs1)c1c(-c2ccccc2)nc2n1CCS2(=O)=O
RP-LC retention time: 1010 s

CCCC(=O)Nc1ccc(-n2cnc(C(=O)NC)c2)nc1
RP-LC retention time: 598 s

CCCN1C(=O)COc2ccc(-c3csc(NC(=O)CCC4CCCCC4)n3)cc21
RP-LC retention time: 1270 s

O=c1n(Cc2nc(-c3ccc(OC(F)(F)F)cc3)no2)nc2ccc(-c3ccccc3)nn12
RP-LC retention time: 1070 s

Cc1ccc(CNC(=O)C2(C)CN(S(C)(=O)=O)CC(=O)N2Cc2ccc(C)cc2)cc1 (stereo not drawn)
RP-LC retention time: 899 s

Cn1nc(-c2ccccc2)cc1C(=O)N1CCC(C(=O)Nc2nccs2)CC1
RP-LC retention time: 712 s

COc1cccc(CN2CCC3(CCC3O)CC2)n1 (stereo not drawn)
RP-LC retention time: 569 s

CC1CCC2(CC1)N=C(c1ccccc1)C(=O)N2CC(=O)Nc1ccc2c(c1)OCCO2 (stereo not drawn)
RP-LC retention time: 1120 s

O=C(CN1C(=O)CSc2cccn2-c2ccccc21)N1CCN(c2ccccn2)CC1
RP-LC retention time: 607 s

Cc1ccc(C)c(N2CCN(c3ccnc(SCC(=O)Nc4ccccc4)n3)CC2)c1
RP-LC retention time: 860 s

CC(C)CN1C(=O)CCc2cc(NS(=O)(=O)c3ccccc3)ccc21
RP-LC retention time: 844 s

COc1ccc(-c2nnc(-c3nc(NCc4ccc(C)o4)c4ccccc4n3)o2)cc1
RP-LC retention time: 985 s

COc1ccc(CCNC(=O)[C@@H]2[C@H](c3cc(OC)c(OC)c(OC)c3)c3cc4c(cc3[C@H](O)[C@H]2CO)OCO4)cc1OC
RP-LC retention time: 699 s

Cc1ccc(S(=O)(=O)NCc2c(-c3ccccc3)nc3sc(C)nn23)c(C)c1
RP-LC retention time: 922 s

COc1cc2c(=O)c(C(=O)c3ccncc3)cn(CC(=O)Nc3ccc(F)cc3F)c2cc1Cl
RP-LC retention time: 711 s

O=C(NCc1ccc(N2CCOCC2)cc1)c1csc(-c2ccc(N3CCCC3)nc2)n1
RP-LC retention time: 635 s

Cc1cc(C)c(CNC(=O)C2CCN(c3cncnc3N3CCN(C)CC3)CC2)c(C)c1
RP-LC retention time: 598 s

CCn1c(=O)c(N2CCC(NC(=O)NC)CC2)nc2ccccc21
RP-LC retention time: 759 s

O=C(C1CC(=O)N(c2n[nH]c3cccc(F)c23)C1)N1CCN(c2ccc(F)cc2)CC1 (stereo not drawn)
RP-LC retention time: 740 s

O=C(NCCc1cccs1)C1CCN(C(=O)c2ncn3c2COC(c2ccc(F)cc2)C3)CC1 (stereo not drawn)
RP-LC retention time: 774 s

O=[N+]([O-])c1cccc(-c2nc(N3CCCCCC3)c3ccccc3n2)c1
RP-LC retention time: 1030 s

CCOC(=O)C1=C(CN(C)Cc2ccccc2)NC(=O)NC1c1ccc(C)cc1 (stereo not drawn)
RP-LC retention time: 670 s

CCN1CCN(C(=O)CSCc2nc3cccnc3n2C2CCCCC2)CC1
RP-LC retention time: 625 s

COc1ccc(-c2noc(C3CCCN3C(=O)CNC(=O)c3cccs3)n2)cc1 (stereo not drawn)
RP-LC retention time: 788 s

COc1ccc(OC)c(NC(=O)c2cc(C)n3nc(-c4ccco4)cc3n2)c1
RP-LC retention time: 1160 s

COc1ccc(NC(=O)Cn2c(=O)c3cc(C)nn3c3ncccc32)cc1Cl
RP-LC retention time: 724 s

O=C(c1ccc2c(c1)OCO2)N1CCCC1c1nc(-c2cccc(C(F)(F)F)c2)no1 (stereo not drawn)
RP-LC retention time: 1080 s
